Data from PMC6548335 (ACS infectious diseases, 2019).
“Also recorded” adds a separate entry of the source.

How the values were obtained:
[1] = Hepatic microsomal stability; type: in vitro ADME; conditions: mouse, liver microsomes, pH 7.4
[2] = tested on: DENV2 NGC; experiment: microbe, parasite or virus in culture; type: cell-based, dengue virus 2 (BHK-21 cells); conditions: Dengue virus, DENV2, BHK-21, read-out: IC90 (μM) [DENV2 NGC)
[3] = tested on: BHK-21 cells; experiment: Cytotoxicity assay; type: cell-based, baby hamster; conditions: for CC5: 50% loss of BHK-21 cell viability; for CC50 relative to antiviral IC90: BHK-21 CC50 vs DENV2 IC90
[4] = tested on: malate dehydrogenase (MDH); experiment: Malate dehydrogenase; type: biochemical; conditions: presence and absence of Triton X-100
[5] = tested on: E-mediated membrane fusion of DENV2, strain NGC; conditions: 0, 10, 50 μM compound, pH 5.3, Western blot
[6] = Plasma-protein binding; type: in vitro ADME
[7] = target: soluble, prefusion DENV2 envelope protein (sE2) (Dengue virus type 2, UniProt P14340); experiment: Biolayer interferometry binding to sE2; set-up: species or system dengue virus 2
[8] = tested on: DENV2 S221; experiment: Multi-cycle infection, DENV2 S221; conditions: 5 μM, MOI 0.01, supernatants at 48 and 72 hours post-infection
[9] = Pharmacokinetic study in mice; conditions: female, C57BL/6, mouse, intraperitoneal, 20 mg/kg
[10] = tested on: DENV2 S221; experiment: Viral infectivity assay, mouse-adapted DENV2 S221; conditions: Dengue virus, DENV2, BHK-21, read-out: antiviral IC90, DENV2 S221

CN1CCN(c2ccc(N/N=C(\C#N)C(=O)c3cc4ccccc4o3)cc2C(F)(F)F)CC1 [JBJ-01-162-01, (E)-2-(benzofuran-2-yl)-N-(4-(4-methylpiperazin-1-yl)-3-(trifluoromethyl)phenyl)-2-oxoacetohydrazonoyl cyanide]
half-life at 1 μM [1]: 35.1 min

CN1CCN(c2cc(N/N=C(\C#N)C(=O)c3cc4ccccc4o3)cc(C(F)(F)F)c2)CC1 [JBJ-01-162-02, (E)-2-(benzofuran-2-yl)-N-(3-(4-methylpiperazin-1-yl)-5-(trifluoromethyl)phenyl)-2-oxoacetohydrazonoyl cyanide]
IC90 [2]: 9 ± 2.8 µM
half-life at 1 μM [1]: 73 min
CC5 [3]: 24.5 ± 7.2 µM
detergent-sensitive (non-specific) inhibition of MDH [4]: detergent-sensitive inhibition of malate dehydrogenase comparable to that of 3-110-22

N#C/C(=N\Nc1ccc(N2CCOCC2)c(C(F)(F)F)c1)C(=O)c1cc2ccccc2o1 [JBJ-01-162-03, (E)-2-(benzofuran-2-yl)-N-(4-morpholino-3-(trifluoromethyl)phenyl)-2-oxoacetohydrazonoyl cyanide]
IC90 [2]: 1.6 ± 0.7 µM
half-life at 1 μM [1]: > 120 min
CC5 [3]: 32.5 ± 2.2 µM
CC50 relative to antiviral IC90 [3]: ≥ 20 fold
detergent-sensitive (non-specific) inhibition of MDH [4]: detergent-sensitive inhibition of malate dehydrogenase comparable to that of 3-110-22

Cc1cn(-c2cc(N/N=C(\C#N)C(=O)c3cc4ccccc4o3)cc(C(F)(F)F)c2)cn1 [JBJ-01-162-04, (E)-2-(benzofuran-2-yl)-N-(3-(4-methyl-1H-imidazol-1-yl)-5-(trifluoromethyl)phenyl)-2-oxoacetohydrazonoyl cyanide]
IC90 [2]: 1.5 ± 0.4 µM
inhibition of E-mediated fusion (protection of core from trypsin digestion), DENV2 [5]: inhibits E-mediated fusion of DENV2 in a concentration-dependent manner; also recorded: inhibits viral fusion in the liposome-based assay in a concentration-dependent manner
fraction unbound [6]: < 0.001
Kd [7]: 1400 ± 500 nM
reduction of viral yield in multi-cycle infection [8]: over 95%
half-life at 1 μM [1]: 64.8 min
CC50 relative to antiviral IC90 [3]: ≥ 20 fold
concentration at 4 h ([9]; liver): 37.2 µM
concentration at 12 h ([9]; liver): 13 µM
concentration at 4 h ([9]; plasma): 75.8 µM
concentration at 12 h ([9]; plasma): 2.9 µM
detergent-sensitive (non-specific) inhibition of MDH [4]: lacks this non-specific activity; also recorded: Slight inhibition of MDH
IC90 [10]: 1400 ± 600 nM

CCN1CCN(Cc2ccc(N/N=C(\C#N)C(=O)c3cc4ccccc4o3)cc2C(F)(F)F)CC1 [JBJ-01-162-05, (E)-2-(benzofuran-2-yl)-N-(4-((4-ethylpiperazin-1-yl)methyl)-3-(trifluoromethyl)phenyl)-2-oxoacetohydrazonoyl cyanide]
half-life at 1 μM [1]: 29.9 min

N#C/C(=N\Nc1ccc(F)c(C(F)(F)F)c1)C(=O)c1cc2ccccc2o1 [JBJ-03-019-01, (E)-2-(benzofuran-2-yl)-N-(4-fluoro-3-(trifluoromethyl)phenyl)-2-oxoacetohydrazonoyl cyanide]
half-life at 1 μM [1]: 7.6 min

N#C/C(=N\Nc1cc(F)cc(C(F)(F)F)c1)C(=O)c1cc2ccccc2o1 [JBJ-03-019-02, (E)-2-(benzofuran-2-yl)-N-(3-fluoro-5-(trifluoromethyl)phenyl)-2-oxoacetohydrazonoyl cyanide]
half-life at 1 μM [1]: 8.6 min
